Ends that are not written are not given here.
Tests used:
[1] = test system: human small intestinal tissue (transplanted HIOs); assay: Ussing chamber electrophysiology, peptides/chemicals added ex vivo, transplanted HIO tissue; format: cell-based; settings: for initial Isc response to luminal glucose: then 25 mM D-glucose
Protocol: (§1) 28-35 days after spheroid generation, HIOs were removed from Matrigel and transplanted under the kidney capsule of immune deficient NOD.Cg-Prkdc^scidI12rg^tmIWjl/SzJ (NSG) mice as previously described^16. NSG mice were maintained on Bactrim chow for a minimum of 2 weeks prior to transplantation and thereafter for the duration of the experiment (8-14 weeks).
(§2) Electrophysiological experiments were conducted as described^28 with minor modifications. Mouse jejunum and transplanted HIOs were dissected and immediately placed in ice-cold Krebs-Ringer solution. Tissues were opened to create a flat epithelial surface. Because seromuscular stripping is associated with release of cyclooxygenases and prostaglandins^28, and prostaglandins can stimulate L-cells to release GLP1, GLP2 and PYY^36, Applicant performed the Ussing chamber experiments in intestinal tissue with an intact muscular layer. Tissues were mounted into sliders (0.031 cm^2 area slider, P2307, Physiological Instruments) and placed in an Ussing chamber with reservoirs containing 5 mL buffer (115 mM NaCl, 1.2 mM CaCl2, 1.2 mM MgCl2, 25 mM NaHCO3, 2.4 mM K2HPO4 and 0.4 mM KH2PO4). The mucosal and serosal tissue surfaces were bathed in the same solution, with the exception of 10 mM glucose in the serosal buffer and 10 mM mannitol in the luminal buffer. Mucosal and serosal reservoir solutions were gassed with 95% O2 and 5% CO2 to pH 7.4 and maintained at 37° C. by a circulating water bath behind the reservoir chambers. Electrophysiology parameters were recorded as previously described^37. Tissue was allowed to equilibrate to a basal steady-state for a minimum of 30 minutes before the addition of chemicals or peptides. 10 nM tetrodotoxin (Tocris) was added to the serosal buffer bathing mouse intestine to inhibit voltage-gated neuronal firing and allowed to incubate for a minimum of 10 minutes before basal Isc recording. D-glucose and Gly-Sar were added to the luminal side of the chamber once the VIP-induced Isc had stabilized at a maximum value.

mouse jejunum = assay: Ussing chamber electrophysiology, peptides/chemicals added ex vivo, mouse jejunum; format: cell-based; settings: for initial Isc response to luminal glucose: then 25 mM D-glucose
Protocol: as §2

SLC9A3 (NHE3) expression = assay: qPCR of SLC9A3 (NHE3) expression in enteroids; format: cell-based, human
Protocol: RNA was extracted using Nucleospin RNA extraction kit (Macharey-Nagel) and reverse transcribed into cDNA using Superscript VILO (Invitrogen) according to manufacturer's instruction. qPCR primers were designed using NCBI PrimerBlast. Primer sequences are listed in the table below. qPCR was performed using Quantitect SYBR® Green PCR kit (QIAGEN) and a QuantStudio 3 Flex Real-Time PCR System (Applied Biosystems). Relative expression was determined using the […] method and normalizing to PPIA (cyclophilin A). Samples from at least three independent passages were used for quantification.
(§3) Enteroids were differentiated for 5-7 days in the presence of vehicle (water), 10 nM VIP (Tocris) or 10 nM PYY (Phoenix Pharmaceuticals) and 10 nM VIP. On the final day, enteroids were removed from Matrigel and enzymatically dissociated into single-cell suspension using 0.25% Trypsin-EDTA. Cell suspensions were counted and equal cell numbers of dissociated HIOEs were incubated in pHrodo Green AM Intracellular pH indicator (ThermoFisher Scientific) according to manufacturer's directions for 30 minutes at 37 C., washed with 1X PBS, and analyzed by flow cytometry.

HIO-derived enteroids [2] = assay: Intracellular pH assay (pHrodo, flow cytometry) in enteroids; format: cell-based, human
Protocol: as §3
(§4) After mechanical and enzymatic dissociation, tissues were filtered through a 40 μm cell strainer to obtain a single-cell suspension. In all experiments, samples were labeled with either CDH1-mRuby2 or Anti-EpCam-APC (BD Biosciences) to distinguish epithelial cells and incubated with SYTOX Blue dead cell stain (Life Technologies) or 7-AAD (BD Pharmingen). Forward scatter and side scatter were used to discriminate doublets and cellular debris. A minimum of 50,000 events per sample was recorded using an LSR Fortessa flow cytometer (BD Biosciences) and data was analyzed using FACSDiva software (BD Biosciences).

HIO-derived enteroids [3] = assay: Enteroid swelling assay (VIP-induced, CFTR-mediated ion and water efflux); format: cell-based, human; settings: for VIP-induced enteroid swelling: 10 nM VIP, 6 h, 10 nM PYY or 20 μM CFTR-172 added 24 h before imaging
Protocol: Enteroids were plated in 10 μL Matrigel on an 8-chamber glass bottom slide (Ibidi) and maintained as described above. 3-5 days post-plating, the slide was mounted on an inverted confocal microscope (Nikon) fitted with an incubation chamber set to 37° C. and 5% CO2. Media was changed to include 10 nM VIP (Tocris). In some experiments, the media was changed 24 hours prior to imaging to include 20 μM CFTR (inh)-172 (Millipore Sigma) or 10 nM PYY (Phoenix Pharmaceuticals). Images were acquired every 5 minutes at 4× magnification. After 6 hours, some HIOEs swelled to the point of bursting; therefore, Applicant used images acquired at time 0 and at 6 hours for quantification. The area of 10 representative enteroids per well was quantified using NIS Elements software at both time points. The outline of individual enteroids was traced manually and the area calculated by NIS Elements. Fold change at 6 hours over baseline was reported. Data include a minimum of three independent experiments per condition.

[4] = test system: EEC-deficient HIOs transplanted in NSG mice; assay: PYY treatment of NSG mice hosting EEC-deficient HIOs, Ussing chamber analysis of HIO tissue; format: in vivo, human
Protocol: as §1
Electrophysiological experiments were conducted as described^28 with minor modifications. Mouse jejunum and transplanted HIOs were dissected and immediately placed in ice-cold Krebs-Ringer solution. Tissues were opened to create a flat epithelial surface. Because seromuscular stripping is associated with release of cyclooxygenases and prostaglandins^28, and prostaglandins can stimulate L-cells to release GLP1, GLP2 and PYY^36, Applicant performed the Ussing chamber experiments in intestinal tissue with an intact muscular layer. […] Electrophysiology parameters were recorded as previously described^37. […]
NSG mice hosting HIOs were treated with 25 μg PYY (Phoenix Pharmaceuticals) diluted in water to 100 μL by intraperitoneal injection. Mice were treated daily for a minimum of 10 days after HIOs had been maturing for 8 weeks, then dissected and analyzed.

[5] = test system: VillinCre;Neurog3flox/flox (EEC-deficient) mice; assay: PYY rescue of EEC-deficient mice (daily i.p. injection), with ex vivo analysis of jejunum; format: in vivo, mouse
Protocol: as §2, §4
VillinCre;Neurog3^flox/flox mice^4 and their littermates were weighed, genotyped and visually examined for liquid feces daily beginning at postnatal day 10. Applicant established a diarrhea score, with 3 representing wet, yellow feces that smeared the perianal fur, and 0 representing normal, dry, brown, well-defined pellets. Mutant mice which suffered from diarrhea score 3 were included in the rescue experiment. 10 μg PYY (Phoenix Pharmaceuticals) was diluted in water and added to 20 μl DPP4 inhibitor (Millipore) to a final volume of 100 μl per mouse. Mice were injected intraperitoneally with this cocktail within 2 hours of the onset of the dark cycle (7 pm) daily until analysis at postnatal day 28-35. Mice were given access to solid chow on the floor of the cage beginning at postnatal day 10 and weaned at postnatal day 21.

In the case of `NC(=O)NCc1ccc(CNC(=O)[C@@H](CCCN=C(N)N)NC(=O)C(c2ccccc2)c2ccccc2)cc1` [BIB03304, N-[(1R)-1-[[[[4-[[(Amirtocarbortyl)amino]methyl]phenyl]methyl]amino]carbonyl]-4-[(aminoiminomethyl)amino]butyl]-α-phenyl-benzeneacetamide ditrifluoroacetate], the “initial Isc response to luminal glucose” value ([1]; wild-type HIO tissue treated with VIP, NPY1R antagonist BIB03304) is reported as “caused an abnormal initial response to glucose that mimicked EEC-deficient tissues”, the “response (ΔIsc) to VIP” value ([1]; wild-type human tissue, 10 nM VIP, PYY receptor inhibited with BIB03304) is reported as “elevated response to VIP compared to untreated wild-type” and the “basal Isc” value ([1]; wild-type human tissue, 300 nM BIB03304 added) is reported as “reproducibly increased the basal Isc”. For the same compound, the “Isc response to luminal dipeptide Gly-Sar” value ([1]; wild-type human tissue, 10 minutes pre-treatment with 300 nM BIB03304) was “did not alter the Isc response to Gly-Sar”, the “initial Isc response to luminal glucose” value (mouse jejunum; wild-type mouse tissue treated with VIP, NPY1R antagonist BIB03304) was “caused an abnormal initial response to glucose that mimicked EEC-deficient tissues” and the “response (ΔIsc) to VIP” value (mouse jejunum; wild-type mouse tissue, 10 nM VIP, PYY receptor inhibited with BIB03304) was “elevated response to VIP compared to untreated wild-type”. The “basal Isc” value (mouse jejunum; wild-type mouse tissue, 300 nM BIB03304 added) was “reproducibly increased the basal Isc” and the “Isc response to luminal dipeptide Gly-Sar” value (mouse jejunum; wild-type mouse tissue, 10 minutes pre-treatment with 300 nM BIB03304) was “did not alter the Isc response to Gly-Sar”.

With “VIP: vasoactive intestinal peptide (Tocris), ENS-derived peptide signalling via VIPR1 to raise cAMP (HSDAVFTDNYTRLRKQMAVKKYLNSILN-NH2; ends and bridges not checked; UniProt P01282 125-152, looked up)” the SLC9A3 expression (SLC9A3 (NHE3) expression; EEC-deficient enteroids, 5-7 days of exposure to VIP) was “reduced”, the SLC9A3 expression (SLC9A3 (NHE3) expression; wild type enteroids, 5-7 days of exposure to VIP) was “reduced” and the “intracellular pH” value (HIO-derived enteroids [2]; EEC-deficient enteroids differentiated with 10 nM VIP for 5-7 days) was “developed an H^+ imbalance with an acidic cytoplasm”. The “ion and water transport as measured by organoid swelling” value (HIO-derived enteroids [3]; 10 nM VIP added to enteroids) was “induced ion and water transport”.

In the case of `O=C(O)c1ccc(/C=C2\SC(=S)N(c3cccc(C(F)(F)F)c3)C2=O)cc1` [CFTR-172], the “electrogenic response to VIP” value ([1]; wild-type and EEC-deficient human tissue, 20 μM CFTR-172) is reported as “blocked”, the VIP-induced enteroid swelling (HIO-derived enteroids [3]; EEC-deficient enteroids) is reported as “blocked” and the VIP-induced enteroid swelling (HIO-derived enteroids [3]; wild type enteroids) is reported as “blocked”. The “electrogenic response to VIP” value (mouse jejunum; wild type and mutant jejunum pre-treated with 20 μM CFTR-172) was “blocked”.

With “PYY: Peptide YY, PYY(1-36) from Phoenix Pharmaceuticals; EEC-derived gut peptide acting on NPY1R; co-injected with DPP4 inhibitor in mice” the “basal Isc” value ([1]; EEC-deficient (mutant) human tissue, 10 nM PYY added) was “lowered the basal Isc”, the “initial Isc response to luminal glucose” value ([1]; EEC-deficient HIO tissue treated with VIP, pre-treatment with 10 nM PYY) was “returned to wild type levels” and the “magnitude of response (ΔIsc) to VIP” value ([1]; EEC-deficient mutant HIOs, 10 nM VIP, exogenous PYY added) was “reduced the magnitude of response (ΔIsc) to VIP”. For the same compound, the SLC9A3 expression (SLC9A3 (NHE3) expression; EEC-deficient enteroids, PYY concurrently with VIP, 5-7 days) was “restored SLC9A3 expression to not significantly different from untreated”, the “intracellular pH” value (HIO-derived enteroids [2]; EEC-deficient enteroids, 10 nM VIP with concurrent 10 nM PYY for 5-7 days) was “normalized the pH in EEC-deficient enteroids” and the VIP-induced enteroid swelling (HIO-derived enteroids [3]; EEC-deficient enteroids) was “significant inhibition of VIP-induced swelling”. For the same compound, the VIP-induced enteroid swelling (HIO-derived enteroids [3]; wild type enteroids) was “significant inhibition of VIP-induced swelling”, the “response to luminal glucose” value ([4]; EEC-deficient HIOs, host animals injected with 25 μg PYY i.p. daily for 10 days) was “restores a normal glucose response” and the “Isc response to luminal Gly-Sar” value ([4]; EEC-deficient transplanted HIOs, host animals treated long-term with PYY, compared to untreated mutant) was “improved Isc response to luminal Gly-Sar”. For the same compound, the “basal Isc” value (mouse jejunum; EEC-deficient (mutant) mouse tissue, 10 nM PYY added) was “lowered the basal Isc”, the “initial Isc response to luminal glucose” value (mouse jejunum; EEC-deficient mouse tissue treated with VIP, pre-treatment with 10 nM PYY) was “returned to wild type levels” and the “Isc response to luminal dipeptide Gly-Sar” value (mouse jejunum; EEC-deficient mouse tissue, 10 minutes pre-treatment with 10 nM PYY, VIP present) was “did not alter the Isc response to Gly-Sar”. For the same compound, the “magnitude of response (ΔIsc) to VIP” value (mouse jejunum; EEC-deficient mutant mice, 10 nM VIP, exogenous PYY added) was “reduced the magnitude of response (ΔIsc) to VIP”, the “survival of EEC-deficient (mutant) mice” value ([5]; 10 μg PYY(1-36) i.p. once daily from P10, co-injected with DPP4 inhibitor) was “up to 88%” and the “Isc response to luminal Gly-Sar” value ([5]; EEC-deficient mice, long-term PYY treatment, compared to untreated mutant) was “improved Isc response to luminal Gly-Sar”. For the same compound, the “response to luminal glucose” value ([5]; EEC-deficient mouse intestine after in vivo PYY treatment) was “restores a normal glucose response”, the “MFI of pHrodo intensity (intracellular pH, proton transport)” value ([5]; EEC-deficient vs EEC-rich regions of mosaic jejunum after PYY treatment) was “normalized” and the “electrogenic response to VIP” value ([5]; jejunum of mutant mice treated with PYY in vivo) was “restored to wild type levels”. For the same compound, the “basal (resting) Isc of jejunum” value ([5]; mutant jejunum in Ussing chamber after in vivo injections of PYY) was “significantly decreased” and the “diarrhea score (average)” value ([5]; within 48 hours of PYY treatment, score 3 = watery diarrhea, 0 = well-defined pellets, 10 μg PYY i.p. daily with DPP4 inhibitor) was 1.
